pIC50: −log10 of the molar value. Read-outs that look alike come from different tables or passages of the source.
Tests used:
[1] = Liver microsomes metabolic stability assay, mouse; assay type: in vitro ADME; details: mouse liver microsomes 0.5 mg/mL, 37° C.
Procedure: (§1) Example 203 Liver Microsomes Metabolic Stability Assay
(§2) Pooled human liver microsomes (Cat. 452117) were purchased from Corning. Pooled male rat liver microsomes (Cat. R1000) and pooled male mouse liver microsomes (Cat. M1000) were purchased from XENOTECH. Microsomes were stored at −80° C.
(§3) 1) Make a master solution containing phosphate buffer, ultra-pure H2O and MgCl2 solution according to Table 14.
(§4) 2) Two separated experiments were performed as follows.
(§5) a) With NADPH: 10 μL of 20 mg/mL liver microsomes and 40 μL of 10 mM NADPH were added to the incubations. The final concentrations of microsomes and NADPH were 0.5 mg/mL and 1 mM, respectively.
(§6) b) Without NADPH: 10 μL of 20 mg/mL liver microsomes and 40 μL of ultra-pure H2O were added to the incubations. The final concentration of microsomes was 0.5 mg/mL.
(§7) 3) The reaction was started with the addition of 4 μL test compounds solutions or control compound solution (verapamil) at the final concentration of 2 μM and carried out at 37° C.
(§8) 4) Aliquots of 50 μL were taken from the reaction solution at 0, 15, 30, 45 and 60 min. The reaction solutions were stopped by the addition of 4 volumes of cold acetonitrile with 1S (100 nM alprazolam, 200 nM caffeine, 200 nM labetalol and 2 μM ketoprofen). Samples were centrifuged at 3,220 g for 40 minutes. Aliquot of 100 μL of the supernatant was mixed with 100 μL of ultra-pure H2O and then used for LC-MS/MS analysis. All experiments were performed in duplicate.
(§9) The slope value, k, was determined by linear regression of the natural logarithm of the remaining percentage of the parent drug vs. incubation time curve.
(§10) The in vitro half-life (in vitro t1/2) was determined from the slope value:
(§11) Conversion of the in vitro t1/2 (in min) into the in vitro intrinsic clearance (in vitro CLint, in μL/min/mg proteins) was done using the following equation (mean of duplicate determinations): […]
(§12) The control compound (verapamil) was included in the assay. Any value of the compounds that was not within the specified limits will be rejected and the experiment will be repeated.

[2] = molecular target: T1, Ba/F3-TPM3-NTRK1 (Homo sapiens, UniProt P04629); assay: Ba/F3-TPM3-NTRK1 cells proliferation assay; assay type: cell-based; details: 72 h, CellTiter Glo
T1 construct: expressed in transfected cells; host or cells: Ba/F3; the other entry of the earlier key: TPM3 (P06753, Tropomyosin alpha-3 chain)
T1 sequence (P04629 510-796 limits assumed): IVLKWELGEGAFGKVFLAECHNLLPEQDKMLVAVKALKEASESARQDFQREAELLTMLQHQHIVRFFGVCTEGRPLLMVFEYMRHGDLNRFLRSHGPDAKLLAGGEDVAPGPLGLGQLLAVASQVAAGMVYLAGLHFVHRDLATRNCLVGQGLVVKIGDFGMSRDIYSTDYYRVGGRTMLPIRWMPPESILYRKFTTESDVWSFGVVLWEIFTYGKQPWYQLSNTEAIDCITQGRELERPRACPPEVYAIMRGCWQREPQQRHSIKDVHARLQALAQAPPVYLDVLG
Procedure: (§13) Example 202 Ba/F3-TPM3-NTRK1 and Ba/F3-ETV6-NTRK3 cells proliferation assay
(§14) Cell line: Ba/F3 cells with TPM3-NTRK1 or ETV6-NTRK3 fusion mutation gene stably overexpressed named Ba/F3-TPM3-NTRK1 and Ba/F3-ETV6-NTRK3.
(§15) RPMI 1640 and 10% FBS and 1% PS and 2 ug/mL puromycin.
(§16) b) Collect cell to a 15 mL centrifuged tube, centrifuge at 1000 rpm for 5 min. Discard the supernatant, count, and make the cell density at 1.49×10^4 cells/mL, then place it in a 37° C., 5% CO2 incubator.
(§17) a) The test compound (20 mM stock solution) was diluted to 60 μM with 100% DMSO as starting concentration then 3-fold serial diluted with “9+0” concentrations. in a 96-well dilution plate (Thermo, Cat. No. 249944);
(§18) b) The above compound solution was diluted 1:20 times with culture medium to prepare a 10 fold working solution;
(§19) a) Take cells in log phase growth, centrifuge at 1000 rpm for 5 min, then resuspend the cells with culture medium, then count cells;
(§20) b) Cells were seeded to 96-well cell culture plate with density at 2000 cells/well;
(§21) a) Compounds prepared at step 2 were added to cell plate with 15 μL per well, the final concentrations were 300, 100, 33.33, 11.11, 3.70, 1.23, 0.41, 0.14, 0.05 and 0 nM, and the final concentration of DMSO was 0.5%. The blank control well was a culture medium (0.5% DMSO);
(§22) c) The cells were incubated for an additional 72 h in the incubator.
(§23) a) Remove the 96-well cell culture plate and add 50 μl of CTG reagent (CellTiter Glo kit, promega, Cat #G7573).
(§24) b) Plate was shaked for 2 min and then let it cool for 30 min at room temperature.
(§25) c) The Luminescence signal value was read using a PerkinElmer reader.
(§26) Experimental Data Analysis
(§27) Data were analyzed using GraphPad Prism 6.0 software to obtain a fitted curve of compound activity.
(§28) Fit the Compound IC50 from non-linear regression equation:
(§29) Y=Bottom+(Top-Bottom)/(1+10^((Log IC50-X)×HillSlope));
(§30) X: The log of the concentration of the compound; Y: Luminescence value.

[3] = molecular target: T2, Ba/F3-ETV6-NTRK3 (Homo sapiens, UniProt Q16288); assay: Ba/F3-ETV6-NTRK3 cells proliferation assay; assay type: cell-based; details: 72 h, CellTiter Glo
T2 construct: Ba/F3 cells with TPM3-NTRK1 or ETV6-NTRK3 fusion mutation gene stably overexpressed named Ba/F3-TPM3-NTRK1 and Ba/F3-ETV6-NTRK3; fused on or other part: P41212 (Transcription factor ETV6)
T2 sequence (Q16288 whole entry, the tested form may be a part): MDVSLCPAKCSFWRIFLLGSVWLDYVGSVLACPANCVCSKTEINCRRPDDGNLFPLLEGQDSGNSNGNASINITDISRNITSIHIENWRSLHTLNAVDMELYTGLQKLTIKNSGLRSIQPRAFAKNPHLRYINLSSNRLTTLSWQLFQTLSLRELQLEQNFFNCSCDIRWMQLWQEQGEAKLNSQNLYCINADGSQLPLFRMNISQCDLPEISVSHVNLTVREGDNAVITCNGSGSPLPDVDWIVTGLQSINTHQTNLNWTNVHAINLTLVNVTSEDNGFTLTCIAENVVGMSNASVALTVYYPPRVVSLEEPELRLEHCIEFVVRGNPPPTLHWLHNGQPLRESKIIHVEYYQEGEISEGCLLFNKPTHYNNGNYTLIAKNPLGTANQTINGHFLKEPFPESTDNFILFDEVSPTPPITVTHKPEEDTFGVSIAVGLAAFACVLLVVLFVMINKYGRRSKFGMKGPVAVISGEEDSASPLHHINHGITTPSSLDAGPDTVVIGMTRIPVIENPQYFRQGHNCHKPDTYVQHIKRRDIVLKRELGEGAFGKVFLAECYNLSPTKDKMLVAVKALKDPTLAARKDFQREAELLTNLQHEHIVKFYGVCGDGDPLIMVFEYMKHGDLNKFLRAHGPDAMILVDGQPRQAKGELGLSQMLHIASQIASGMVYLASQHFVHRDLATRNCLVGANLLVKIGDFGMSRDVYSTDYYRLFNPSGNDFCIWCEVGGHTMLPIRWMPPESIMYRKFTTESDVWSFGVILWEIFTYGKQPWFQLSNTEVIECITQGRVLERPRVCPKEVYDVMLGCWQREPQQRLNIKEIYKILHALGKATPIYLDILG
Procedure: as §13, §14, §15, §16, §17, §18, §19, §20, §21, §22, §23, §24, §25, §26, §27, §28, §29, §30

[4] = Liver microsomes metabolic stability assay, human; assay type: in vitro ADME; details: human liver microsomes 0.5 mg/mL, 37° C.
Procedure: as §1, §2, §3, §4, §5, §6, §7, §8, §9, §10, §11, §12

[5] = molecular target: TrkA kinase (Homo sapiens, UniProt P04629); assay: TrkA kinase assay (mobility shift assay); assay type: biochemical; details: read-out: Trk A Kinase IC50
Sequence of TrkA kinase (P04629 33-796): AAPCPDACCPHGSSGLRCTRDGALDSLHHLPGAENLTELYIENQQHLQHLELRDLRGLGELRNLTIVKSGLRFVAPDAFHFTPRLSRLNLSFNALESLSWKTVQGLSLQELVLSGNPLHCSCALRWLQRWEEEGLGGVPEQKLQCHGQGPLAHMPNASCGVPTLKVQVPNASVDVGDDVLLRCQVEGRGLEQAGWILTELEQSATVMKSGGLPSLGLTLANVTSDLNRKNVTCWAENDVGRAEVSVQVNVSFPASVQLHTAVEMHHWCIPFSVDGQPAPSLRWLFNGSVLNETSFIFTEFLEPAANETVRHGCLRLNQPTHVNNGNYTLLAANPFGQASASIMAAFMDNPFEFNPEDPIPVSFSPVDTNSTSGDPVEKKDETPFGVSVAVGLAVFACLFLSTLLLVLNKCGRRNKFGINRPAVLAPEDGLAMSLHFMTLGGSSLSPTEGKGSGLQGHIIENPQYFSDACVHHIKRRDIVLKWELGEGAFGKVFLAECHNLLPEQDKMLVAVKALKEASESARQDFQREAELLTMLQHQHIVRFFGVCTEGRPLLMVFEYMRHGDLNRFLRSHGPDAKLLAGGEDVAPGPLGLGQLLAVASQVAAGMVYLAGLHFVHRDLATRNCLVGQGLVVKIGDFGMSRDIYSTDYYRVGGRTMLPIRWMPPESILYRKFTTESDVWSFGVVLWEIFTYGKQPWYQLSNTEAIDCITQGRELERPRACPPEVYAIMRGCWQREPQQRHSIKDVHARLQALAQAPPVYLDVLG
Method in brief: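 Ten-point compound series was preincubated 10 min at room temperature with TrkA, then FAM-peptide plus ATP added in HEPES pH 7.5/Brij-35 buffer and reacted at 28 °C before EDTA quench.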

[6] = Liver microsomes metabolic stability assay, rat; assay type: in vitro ADME; details: rat liver microsomes 0.5 mg/mL, 37° C.
Procedure: as §1, §2, §3, §4, §5, §6, §7, §8, §9, §10, §11, §12

[7] = Plasma protein binding (equilibrium dialysis), human; assay type: in vitro ADME; details: pH 7.4, human plasma, 1 μM, 6 hours dialysis
Procedure: (§31) Example 204 Plasma Protein Binding Measurements
(§32) The plasma protein binding was measured as the following procedure.
(§33) 1) Preparation of 100 mM sodium phosphate and 150 mM NaCl buffer (PBS)
(§34) A basic solution was prepared by dissolving 14.2 g/L Na2HPO4 and 8.77 g/L NaCl in deionized water and the solution could be stored at 4° C. for up to 7 days. An acidic solution was prepared by dissolving 12.0 g/L NaH2PO4 and 8.77 g/L NaCl in deionized water and the solution could be stored at 4° C. for up to 7 days. The basic solution was titrated with the acidic solution to pH 7.4 and store at 4° C. for up to 7 days. pH was checked on the day of experiment and was adjusted if outside specification of 7.4±0.1.
(§35) Frozen plasma was thawed immediately at room temperature.
(§36) The plasma was centrifuged at 3,220 g for 10 minutes to remove clots and supernatant was collected into a fresh tube. The pH of the plasma was checked and recorded.
(§37) Note: a). Only use plasma that has been thawed no more than twice since arrival. b). Only use plasma within the range of pH 7 to pH 8.
(§38) 3) Preparation of working solutions
(§39) The working solutions of test compounds and control compound ketoconazole were prepared in DMSO at the concentration of 200 μM. And then 3 μL of working solution was removed to mix with 597 μL of human, rat or mouse plasma to achieve a final concentration of 1 μM (0.5% DMSO). Plasma samples were vortexed thoroughly.
(§40) 4) Preparation of dialysis membranes
(§41) The dialysis membranes were soaked in ultrapure water for 60 minutes to separate strips, then in 20% ethanol for 20 minutes, finally in dialysis buffer for 20 minutes.
(§42) 5) Procedure for equilibrium dialysis
(§43) The dialysis apparatus was assembled according to the manufacturer's instruction. Each cell was filled with 120 μL of plasma sample and dialyzed against equal volume of dialysis buffer (PBS). The assay was performed in duplicate. The dialysis plate was sealed and incubated in an incubator at 37° C. with 5% CO2 at 100 rpm for 6 hours. At the end of incubation, seal was removed and 50 μL of samples from both buffer and plasma chambers were transferred to wells of a 96-well plate.
(§44) 6) Procedure for sample analysis
(§45) 50 μL of blank plasma was added to each buffer samples and an equal volume of PBS was supplemented to the collected plasma sample. 300 μL of room temperature quench solution (acetonitrile containing internal standards (1S, 100 nM Alprazolam, 500 nM Labetalol and 2 μM Ketoprofen)) was added to precipitate protein. Samples in plate were vortexed for 5 minutes and centrifuged at 3,220 g for 30 minutes at 4° C. And then 100 μL of the supernatant was transferred to a new 96-well plate with 100 μL or 200 μL water (depends on the LC-MS signal response and peak shape) for LC-MS/MS analysis.
(§46) Calculate the percentages of test compound and control compound bound as follows:
(§47) % Free=(Peak Area Ratiobuffer chamber/Peak Area Ratioplasma chamber)*100
(§48) % Recovery=(Peak Area Ratiobuffer chamber+Peak Area Ratioplasma chamber)/Peak Area Ratio total sample*100
(§49) Peak Area Ratiobuffer chamber means the conc for free fraction
(§50) Peak Area Ratioplasma chamber means the conc for both free and bound fraction
(§51) Peak Area Ratiototal sample means the conc for starting sample before incubation

[8] = Plasma protein binding (equilibrium dialysis), mouse; assay type: in vitro ADME; details: pH 7.4, 6 hours dialysis
Procedure: as §31, §32, §33, §34, §35, §36, §37, §38, §39, §40, §41, §42, §43, §44, §45, §46, §47, §48, §49, §50, §51

[9] = Plasma protein binding (equilibrium dialysis), rat; assay type: in vitro ADME; details: pH 7.4, 6 hours dialysis
Procedure: as §31, §32, §33, §34, §35, §36, §37, §38, §39, §40, §41, §42, §43, §44, §45, §46, §47, §48, §49, §50, §51

SMILES | pIC50 [2] | pIC50 [3] | pIC50 ([5]; class symbols) | pIC50 ([5]; numeric values) | further results
Fc1ccc(F)c([C@H]2CCCN2c2ccn3ncc(-c4nnc(C5CCNCC5)[nH]4)c3n2)c1 [Compound 22, (R)-5-(2-(2,5-difluorophenyl)pyrrolidin-1-yl)-3-(5-(piperidin-4-yl)-4H-1,2,4-triazol-3-yl)pyrazolo[1,5-a]pyrimidine] | 8.53 | 8.61 | 7.30 to 8.00 | – | –
Fc1ccc(F)c([C@H]2CCCN2c2ccn3ncc(-c4nnc(-c5cnccn5)[nH]4)c3n2)c1 [Compound 10, (R)-5-(2-(2,5-difluorophenyl)pyrrolidin-1-yl)-3-(5-(pyrazin-2-yl)-4H-1,2,4-triazol-3-yl)pyrazolo[1,5-a]pyrimidine] | 8.94 | 8.92 | 7.30 to 8.00 | – | –
OC1CCC[C@H](c2nnc(-c3cnn4ccc(N5CCC[C@@H]5c5cc(F)ccc5F)nc34)[nH]2)C1 (stereo partly drawn) [Compound 18, (3S)-3-(5-(5-((R)-2-(2,5-difluorophenyl)pyrrolidin-1-yl)pyrazolo[1,5-a]pyrimidin-3-yl)-4H-1,2,4-triazol-3-yl)cyclohexan-1-ol] | 8.42 | 8.55 | 7.30 to 8.00 | – | –
N#Cc1cc2nc(-c3cnn4ccc(N5CCC[C@@H]5c5cc(F)ccc5F)nc34)[nH]c2cc1N1CCC[C@H]1C(=O)O [Compound 167, (5-cyano-2-(5-((R)-2-(2,5-difluorophenyl)pyrrolidin-1-yl)pyrazolo[1,5-a]pyrimidin-3-yl)-1H-benzo[d]imidazol-6-yl)-L-proline] | 7.88 | 7.71 | – | 9.52 | –

The next lines start with results.

pIC50 [2] | pIC50 [3] | pIC50 ([5]; class symbols) | pIC50 ([5]; numeric values) | SMILES | further results
8.39 | 8.45 | < 7.30 | – | O=C(O)c1nnc(-c2cnn3ccc(N4CCC[C@@H]4c4cc(F)ccc4F)nc23)[nH]1 [Compound 17, (R)-5-(5-(2-(2,5-difluorophenyl)pyrrolidin-1-yl)pyrazolo[1,5-a]pyrimidin-3-yl)-4H-1,2,4-triazole-3-carboxylic acid] | microsomal CLint at 2 μM ([1]; male): 2.23 µL/min/mg; t1/2 Mouse ([1]; 2 μM): ∞; t1/2 Human ([4]; 2 μM): ∞; microsomal CLint at 2 μM [4]: 0.27 µL/min/mg; half-life at 2 μM ([6]; male, read-out: t1/2 Rat): 622 min; CLint Rat ([6]; 2 μM): 0.00 μL/min/mg proteins
– | – | – | 7.93 | NC1(c2nnc(-c3cnn4ccc(N5CCC[C@@H]5c5cc(F)ccc5F)nc34)[nH]2)CCC1 [Compound 24, (R)-1-(5-(5-(2-(2,5-difluorophenyl)pyrrolidin-1-yl)pyrazolo[1,5-a]pyrimidin-3-yl)-4H-1,2,4-triazol-3-yl)cyclobutan-1-amine] | recovery at 6 h, 1 μM [7]: 85.9%; fraction unbound at 6 h, 1 μM ([7]; read-out: Mean % Bound Human (converted)): 0.126; recovery at 6 h, 1 μM [8]: 86.5%; fraction unbound at 6 h, 1 μM ([8]; read-out: Mean % Bound Mouse (converted)): 0.0817; recovery at 6 h, 1 μM [9]: 82.5%; fraction unbound at 6 h, 1 μM ([9]; read-out: Mean % Bound Rat (converted)): 0.164
7.52 | 7.68 | – | 9.52 | O=C(O)c1cc2nc(-c3cnn4ccc(N5CCC[C@@H]5c5cc(F)ccc5F)nc34)[nH]c2cc1F [Compound 141, (R)-2-(5-(2-(2,5-difluorophenyl)pyrrolidin-1-yl)pyrazolo[1,5-a]pyrimidin-3-yl)-6-fluoro-1H-benzo[d]imidazole-5-carboxylic acid] | –
8.69 | 8.68 | 7.30 to 8.00 | – | Oc1ccc(-c2nnc(-c3cnn4ccc(N5CCC[C@@H]5c5cc(F)ccc5F)nc34)[nH]2)cc1 [Compound 9, (R)-4-(5-(5-(2-(2,5-difluorophenyl)pyrrolidin-1-yl)pyrazolo[1,5-a]pyrimidin-3-yl)-4H-1,2,4-triazol-3-yl)phenol] | –

Reference: US20210395256A1, “TYROSINE KINASE INHIBITORS, COMPOSITIONS AND METHODS THERE OF” (Betta Pharmaceuticals Co., Ltd., priority 2018, published 2021)
